Here are results for 4 molecules from patent US11524082B2, “FBSA-based therapeutic and radioimaging conjugates targeting carbonic anhydrase positive cancers” (priority 2017, dated 2022).

“Also recorded” adds a separate entry of the source.

One data set has as its system SKRC52 cells. The experiment in a line: Fluorescent confocal microscopy of FBSA-PEG2-FITC conjugate in SKRC52 cells. Particulars: 25 nM conjugate, 1 hour at 37° C.; competition with 100-fold excess Compound 3; FIG. 1. In kind it is cell-based, Human. The method, then: Fluorescent Microscopy of FBSA-PEG2-FITC Conjugate, Conjugate 5.
Metastatic Human Renal Cell Carcinoma (SKRC52) cells (10^5) were seeded into chambered coverglass plates and allowed to grow to confluence over 24 hours (hr). Spent medium was replaced with 0.5 mL of fresh medium containing 10% fetal bovine serum albumin and 25 nM concentration of the FITC conjugate, Conjugate 5, alone or the dye conjugate plus 100-fold excess CAIX inhibitor (Compound 3, 3-((2-(cyclooctylamino)-3,5,6-trifluoro-4-sulfamoylphenyl)sulfonyl)propanoic acid). After incubation for 1 hour at 37° C., cells were rinsed twice with 1 mL of media to remove unbound fluorescence and 0.5 ml of fresh incubation medium was added to the wells. Images were acquired using a confocal microscopy (FV 1000, Olympus).

Data set [1] deals with T1, CAIX (Homo sapiens, UniProt Q16790). Description: Binding affinity of CAIX FITC conjugates by flow cytometry in HT-29 cells. Also noted: expressed in transfected cells. Particulars: FIG. 4. As for the experimental part: (§1) General Procedure for Binding Affinity Determination of CAIX FITC Conjugates
(§2) HEK293 transfected with CAIX, SKRC52, HT29, or A549 cells (0.25×10^6) were placed into 1.5 ml centrifuge tubes with 0.3 mL of fresh DMEM medium containing increasing concentrations of CAIX FITC conjugates in the presence or absence of 100-fold excess CAIX inhibitor (Compound 3, 3-((2-(cyclooctylamino)-3,5,6-trifluoro-4-sulfamoylphenyl)sulfonyl)propanoic acid. After incubating for 1 h at 25° C., cells were rinsed twice with 1 mL of medium. The cells were transferred into a 96-well plate and the mean florescence intensity (MFI) was read using flow cytometry (BD Accuri C6, BD Biosciences). Apparent KD was calculated by plotting MFI versus the concentration of the FITC conjugates using GraphPad Prism 4. For hypoxia experiments, cells were incubated under an atmosphere containing 1% oxygen, 5% carbon dioxide, and 94% nitrogen for 24-48 hours in a hypoxia chamber.
On the technique in general: A flow cytometer gives signals particle by particle.

The target of data set [2] is T1, CAIX. Description: Binding affinity of CAIX FITC conjugates by flow cytometry in A549 cells. The conditions noted are these: FIG. 7. Details: expressed in transfected cells. The method, then: as §1, §2
The target of data set [3] is T1, CAIX. Description: Binding affinity of CAIX FITC conjugates by flow cytometry in SKRC52 cells. Also noted: endogenous in cells; host or cells: SKRC52.
From the text: as §1

Data set [4] deals with T1, CAIX. The experiment in a line: Binding affinity of CAIX FITC conjugates by flow cytometry in HEK293 transfected with CAIX. Details: expressed in transfected cells; host or cells: HEK293. The conditions noted are these: HEK293-CA9 cells; FIG. 2 / FIG. 5; apparent KD from MFI, 1 h at 25° C.; read-out: KD.
From the text: as §1

Another data set relates to HT-29 cells. The data set is classed as cell-based. The conditions noted are these: 2 hr incubation, then 66 hr in fresh medium, FIG. 8, read-out: IC50 (3H-thymidine incorporation). As for the experimental part:
General Procedure for In Vitro Cytotoxicity Determination by ^3H-Thymidine Uptake Assays
HT-29 cells were seeded on amine-coated 24-well plates and allowed to form monolayers. The spent medium in each well was replaced with fresh medium (0.5 mL) containing various concentrations of Conjugate 12. After incubating for 2 hr at 37° C., cells were rinsed three times with fresh medium and then incubated an additional 66 hr at 37° C. in fresh medium. Spent medium in each well was again replaced with fresh medium (0.5 mL) containing ^3H-thymidine (1 μCi/ml) and the cells were incubated for an additional 4 hr. After washing the cells three times with medium, they were dissolved in 0.5 mL of 0.25 M NaOH. Thymidine incorporation was then determined by counting cell-associated radioactivity using a scintillation counter (PACKARD, PACKARD INSTRUMENT COMPANY). The IC50 value was derived from a plot of the percent of ^3H-thymidine incorporation versus log concentration using Graph Pad Prism 4 and TABLECURVE 2D software.
Background: Uptake of a labelled nucleoside into DNA is a usual measure of proliferation.

The test system of the next data set is HT-29 xenografts. The experiment in a line: In vivo efficacy of tubulysin conjugates in HT-29 xenograft tumors. Also noted: species or system mice. The method, then: (§3) Athymic nu/nu mice were purchased from Harlan Laboratories (ENVIGO), housed in a sterile environment on a standard 12 hour light-dark cycle and maintained on normal rodent chow. All animal procedures were approved by the PURDUE Animal Care and Use Committee in accordance with National Institutes of Health guidelines.
In Vivo Efficacy of Tubulysin Conjugate 12 in HT29 Xenograft Tumors.
Cells, HT-29 cells (4.25×10^6) were subcutaneously injected into the shoulders of 5-6 week old female nu/nu mice. Tumors were measured in two perpendicular directions thrice weekly with vernier calipers and their volumes were calculated as 0.5×L×W^2, where L is the longest axis (in millimeters), and W is the axis perpendicular to L (in millimeters). Dosing of Conjugate 12 was initiated when the subcutaneous tumors reached ˜100-275 mm^3 in volume. Dosing solutions were prepared in saline and filtered through a 0.22 μm filter. Solutions were administered via tail vein injection or intraperitoneally. […] Injections were given every two days and the mice were weighed concurrently. […]

The subject of a further data set is A549 xenografts. Description: In vivo efficacy of Conjugate 14 in A549 xenografts. Details: species or system mice. The conditions noted are these: 1.25 umole/kg TIW for three weeks, FIG. 17. As for the experimental part:
as §3
Cells, HT-29 cells (4.25×10^6) were subcutaneously injected into the shoulders of 5-6 week old female nu/nu mice. Tumors were measured in two perpendicular directions thrice weekly with vernier calipers and their volumes were calculated as 0.5×L×W^2, where L is the longest axis (in millimeters), and W is the axis perpendicular to L (in millimeters). Dosing of Conjugate 12 was initiated when the subcutaneous tumors reached ˜100-275 mm^3 in volume. Dosing solutions were prepared in saline and filtered through a 0.22 μm filter. Solutions were administered via tail vein injection or intraperitoneally. Each mouse received 2 μmol/kg Conjugate 12 per injection. Injections were given every two days and the mice were weighed concurrently.
Similar experiments were performed using Conjugate 14 with A549 cells instead of HT-29 cells (FIGS. 17 and 18).

The target of data set [5] is T1, CAIX. The experiment in a line: In vitro binding affinity of radiolabeled Conjugate 17 in A549 cells (gamma counting). Details: expressed in transfected cells. Particulars: 64Cu-radiolabeled, 1 h at 25° C., FIG. 10. The method, then:
(§4) In Vitro Binding Affinity of Radiolabeled Conjugate 17
(§5) SKRC52, HT29, A549 cells (˜0.25×10^6) were seeded in a 24-well plate and allowed to grow overnight. Fresh medium containing increasing concentrations of radiolabeled Conjugate 17, as prepared in Example 17, in the presence or absence of 100-fold excess FBSA competition compound was added. All concentrations were examined in duplicate or triplicate. After incubating for 1 h at 25° C., cells were washed with PBS (3×0.5 mL). To each well was added 0.5 M NaOH. After 10 min, 0.45 mL of the NaOH was removed and the radioactivity was measured with a γ-counter (Packard, Packard Instrument Company). The apparent binding affinity was calculated by plotting the bound radioactivity versus the concentration of the radiolabeled conjugate with GraphPad Prism 4.

The target of data set [6] is T1, CAIX. The experiment in a line: In vitro binding affinity of radiolabeled Conjugate 17 in SKRC52 cells (gamma counting). Details: endogenous in cells; host or cells: SKRC52. The method, then: as §4, §5

As to `NS(=O)(=O)c1c(F)c(F)c(S(=O)(=O)CCC(=O)NCCOCCOCCC(=O)NC(CSC2CC(=O)N(c3ccc(-c4c5ccc(=O)cc-5oc5cc(O)ccc45)c(C(=O)O)c3)C2=O)C(=O)O)c(NC2CCCCCCC2)c1F` (centres unmarked) [Conjugate 5, 2-(((1-(3-carboxy-4-(6-hydroxy-3-oxo-3H-xanthen-9-yl)phenyl)-2,5-dioxopyrrolidin-3-yl)thio)methyl)-16-((2-(cyclooctylamino)-3,5,6-trifluoro-4-sulfamoylphenyl)sulfonyl)-4,14-dioxo-7,10-dioxa-3,13-diazahexadecanoic acid], the “cell binding by confocal microscopy, alone and with excess CAIX inhibitor” value with SKRC52 cells was “bound the cells and were competed in the presence of excess unconjugated inhibitor”. For the same molecule, the “binding with competition by unconjugated inhibitor” value at CAIX [1] (100-fold excess unconjugated inhibitor (Compound 3)) was “bound the cells and competed in the presence of 100-fold excess unconjugated inhibitor”. Besides, the Kd was 4.55 nM at CAIX [1]; 6.04 nM on CAIX [2]; 4.72 nM on CAIX [3] (SKRC52 cells under hypoxia (1% oxygen, 24-48 hours), FIG. 6, read-out: KD, Hypoxia SKRC52); 4.57 nM at CAIX [3] (SKRC52 cells without hypoxia, FIG. 6, read-out: binding affinity, Normoxia SKRC52); 1.28 nM at CAIX [3] (SKRC52 cells, FIG. 3, apparent KD from MFI, 1 h at 25° C., read-out: KD); 17.9 nM at CAIX [4].

On to `CCCC(=O)OCN(C(=O)[C@@H](NC(=O)C1CCCCN1C)[C@@H](C)CC)[C@H](C[C@@H](OC(C)=O)c1nc(C(=O)N[C@@H](Cc2ccc(O)cc2)C[C@H](C)C(=O)NNC(=O)OCCSSC[C@H](NC(=O)[C@H](CC(=O)O)NC(=O)[C@@H](N)CNC(=O)CCOCCOCCNC(=O)CCS(=O)(=O)c2c(F)c(F)c(S(N)(=O)=O)c(F)c2NC2CCCCCCC2)C(=O)O)cs1)C(C)C` (some centres unmarked) [Conjugate 12], for which the IC50 in the data set on HT-29 cells was found to be 5.04 nM. Further, in the data set on HT-29 xenografts (HT-29 xenograft mice, 2 μmol/kg per injection), the gross toxicity result is on record as “no gross toxicity was observed”. In the data set on HT-29 xenografts (HT-29 xenograft mice, 2 μmol/kg per injection, FIG. 12), the loss of weight result is recorded as “less than 10%”. Further, the body mass loss result in the data set with HT-29 xenografts (HT-29 xenograft mice, 2 umol/kg, at 6 days into the treatment, FIG. 12) is reported as “not more than 10%”. The tumor response entry in the data set with HT-29 xenografts (HT-29 xenografts, 2 μmol/kg per injection, every two days (TIW), n=3, FIG. 11) is “tumors shrinking; also recorded: halted tumor growth and the xenograft is in the process of shrinking”.

`CCCC(=O)OCN(C(=O)[C@@H](NC(=O)C1CCCCN1C)[C@@H](C)CC)[C@H](C[C@@H](OC(C)=O)c1nc(C(=O)N[C@@H](Cc2ccc(O)cc2)C[C@H](C)C(=O)NNC(=O)OCCSSC[C@H](NC(=O)[C@H](CC(=O)O)NC(=O)[C@@H](N)CNC(=O)C(CC(=O)O)NC(=O)C(CCCNC(=N)N)NC(=O)C(CC(=O)O)NC(=O)CCOCCOCCNC(=O)CCS(=O)(=O)c2c(F)c(F)c(S(N)(=O)=O)c(F)c2NC2CCCCCCC2)C(=O)O)cs1)C(C)C` (some centres unmarked) [Conjugate 14]: in the data set on HT-29 xenografts (HT-29 xenograft mice, 1.5, 1, 0.5, 0.25 μmole/kg, n=1 each, FIG. 14), the “whole body mass, other doses” value was “acceptable body mass profiles”. Also, the “whole body mass, highest dose” value in the data set with HT-29 xenografts (HT-29 xenograft mice, highest dose (2 μmole/kg), n=1, FIG. 14) is reported as “loss of body mass”. Further, the “tumor reemergence, starting day” value in the data set with HT-29 xenografts (HT-29 xenografts, 1 umole/kg, n=1, FIG. 13) came out at 16 days. Further, the tumor response result in the data set on HT-29 xenografts (HT-29 xenografts, 1.25 umole/kg TIW for three weeks, n=5, FIG. 15) is “stable tumor regression and stable disease until treatment cessation”; in the data set with A549 xenografts, “stable tumor regression and stable disease until treatment cessation”. Further, the “tumor response, dose escalation” value in the data set with HT-29 xenografts (HT-29 xenografts, doses 2, 1.5, and 1 umole/kg, n=1 for each dose, FIG. 13) was “shrank tumors”.

For the molecule `NS(=O)(=O)c1c(F)c(F)c(S(=O)(=O)CCC(=O)NCCOCCOCCC(=O)NCCNC(=O)CCC(C(=O)O)N2CCN(CC(=O)O)CCN(CC(=O)O)CC2)c(NC2CCCCCCC2)c1F` (centres unmarked) [radiolabeled Conjugate 17], the Kd is 6.04 nM on CAIX [5] and 5.87 nM on CAIX [6] (SKRC52 cells, 64Cu-radiolabeled, 1 h at 25° C., FIG. 9). For the same molecule, the “bound radioactivity in competition controls” value at CAIX [6] (SKRC52 and A549 cells, 100-fold excess of unlabeled FBSA-COOH) is “significantly less bound radioactivity”. The “concentration reaching saturation of binding” value on CAIX [6] (SKRC52 and A549 cells, FIGS. 9 and 10) is recorded as “approximately 75 nM”.
